Holding throughout (type): in vivo, rat
One test has as its system 5-Week-old SD rats. In words: Bone growth promoting effect in rats (transdermal carbon dioxide absorption via external administration device). The text has this: Bone growth promoting effect in rats (using a carbon dioxide external administration device as a means for absorbing a therapeutic agent for bone fracture, a bone growth promoting agent, or a therapeutic or prophylactic agent for bone diseases containing carbon dioxide as an active ingredient)
5-Week-old SD rats were used as test animals. A carbon dioxide absorption aid consisting of 93.77% by weight of water, 5% by weight of glycerin, 0.65% by weight of carbomer, 0.15% by weight of sodium alginate, 0.15% by weight of sodium dihydrogen phosphate, 0.18% by weight of sodium hydroxide, 0.10% by weight of methylparaben was applied twice a week to a hair-shaved right lower limb of a rat of the carbon dioxide absorption group (n=6) in a thickness of 2 mm under anesthesia according to the patent document 7. The lower body of the rat was covered to seal with a bag having 4 cm width and 4 cm length and the top of the bag was bound tightly with a rubber band. Then, the bag was filled with 100% concentration of carbon dioxide through a vinyl tube from a carbon dioxide bomb in order to allow carbon dioxide to be absorbed for 10 minutes. The control group (n=3) was subjected to only the anesthetic procedure. The above mentioned procedures were continued for 3 months. After 3 months, the tibias of both legs were collected from all rats and the length of them was measured by X-ray. […]

The test system of the next test is 5-Week-old Wister rats. The test is described as follows: Bone growth promoting effect in exercise-loaded rats. The procedure: Bone growth promoting effect in exercise-loaded rats (using a carbon dioxide external administration device as a means for absorbing a therapeutic agent for bone fracture, a bone growth promoting agent, or a therapeutic or prophylactic agent for bone diseases containing carbon dioxide as an active ingredient)
5-Week-old Wister rats were matched based on their body weight and were divided into two groups (a control group: n=8; an exercise-loaded group: n=16). The running training for 30 minutes per day using an activity wheel was given to all rats for five continuous days. The exercise-loaded rats were matched based on the running distance on the fourth and fifth day as well as the body weight on the fifth day and were divided into two groups (a training group: n=8; a carbon dioxide absorption group: n=8). After shaving the lower body hair of all rats, the running training for 30 minutes per day using an activity wheel was given to the training group and the carbon dioxide absorption group. This training was done five times a week for 4 weeks. […] The tibias of both legs were collected from the rats, and then the entire length of the tibias was measured by X-ray. […] An auxotonic gristle plate of the tissue section was stained with Safranine O and its length was measured.

The test system of a further test is 12-week-old SD rats. The test is described as follows: Bone fracture healing promoting effect in rats (simple femur fracture). Particulars: carbon dioxide absorption 20 minutes, X-ray. The source says:
Bone fracture healing promoting effect in rats (using a carbon dioxide external administration device as a means for absorbing a therapeutic agent for bone fracture, a bone growth promoting agent, or a therapeutic or prophylactic agent for bone diseases containing carbon dioxide as an active ingredient)
According to the literature (Kokubo, T et al., J Orthop Res. 2003 May; 21(3): 503-510), a simple fracture was made in a femur of 12-week-old SD rats (n=23). The rats were matched based on their body weight and were divided into two groups (a control group: n=11; a carbon dioxide absorption group: n=12). In the same procedures as Example 1 except for adopting 20 minutes of the carbon dioxide absorption time, carbon dioxide absorption into the fractured limb was conducted. After making a fracture, X-ray images of the femur were taken for 2 rats of each group at the first week, 3 rats of each group at the second week, and 6 rats of the control group and the carbon dioxide absorption group at the third week. After the completion of the test, all rats were euthanized and the femurs were collected from the rats.

On to `O=C=O` [carbon dioxide], for which, in the test on 5-Week-old SD rats (100% carbon dioxide to right lower limb 10 minutes twice a week for 3 months, X-ray, P<0.05, FIG. 1), the “length of the right tibia (ratio of the length between the right tibia and the left tibia) versus control group” value was “statistically significantly longer”. The “number of proliferating cells (PCNA staining of tibia auxotonic gristle area) versus control group” value in the test with 5-Week-old SD rats (after 3 months of carbon dioxide absorption, FIG. 2) is “larger”. The “length of the auxotonic gristle plate versus training group and control group” value in the test on 5-Week-old Wister rats (4 weeks, Safranine O staining, FIG. 4) is listed as “statistically significantly longer”. Besides, the “length of tibias versus training group” value with 5-Week-old Wister rats (running training plus carbon dioxide absorption to both lower limbs 10 minutes, five times a week for 4 weeks, X-ray, P<0.1, FIG. 3) is listed as “statistically significantly longer”. Moreover, the “fracture healing at the first and second week” value with 12-week-old SD rats (first and second week) is reported as “not healed”. The “rats with fracture completely healed at the third week” value in the test on 12-week-old SD rats (third week (control group 1/6)) was 6/7.

The values are drawn from US20140127120A1, “THERAPEUTIC AGENT FOR BONE FRACTURE COMPRISING CARBON DIOXIDE AS AN ACTIVE INGREDIENT” (NEOCHEMIR INC., priority 2011, published 2014).
